Data taken from ChEMBL document CHEMBL1157802, “5-Functionalized indazoles as glucocorticoid receptor agonists” (Bioorg Med Chem Lett, 2010).

Columns and labels:
[1] = molecular target: Histamine H1 receptor (Homo sapiens) (UniProt P35367); assay: Inhibition of histamine H1 receptor at 1 uM
[2] = molecular target: T1, Muscarinic acetylcholine receptor M2 (Homo sapiens) (UniProt P08172); assay: Inhibition of muscarinic M2 receptor at 1 uM
T1 sequence (whole entry): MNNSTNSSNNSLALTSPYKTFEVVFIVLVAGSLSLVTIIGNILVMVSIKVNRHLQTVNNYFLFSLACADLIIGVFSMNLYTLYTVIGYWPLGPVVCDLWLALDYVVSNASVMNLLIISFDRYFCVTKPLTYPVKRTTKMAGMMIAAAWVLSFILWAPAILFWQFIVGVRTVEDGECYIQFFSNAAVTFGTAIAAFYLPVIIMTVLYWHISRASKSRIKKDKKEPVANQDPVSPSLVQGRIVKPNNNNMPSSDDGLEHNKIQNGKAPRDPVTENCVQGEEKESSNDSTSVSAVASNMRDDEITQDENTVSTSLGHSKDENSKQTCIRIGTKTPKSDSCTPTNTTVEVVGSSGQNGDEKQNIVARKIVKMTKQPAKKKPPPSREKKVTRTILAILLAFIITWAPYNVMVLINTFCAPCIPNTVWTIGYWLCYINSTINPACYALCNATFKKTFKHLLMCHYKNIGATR

[3] = molecular target: Muscarinic acetylcholine receptor M3 (Homo sapiens) (UniProt P20309); assay: Inhibition of muscarinic M3 receptor at 1 uM
[4] = Inhibition of nicotinic bungarotoxin-sensitive acetylcholine receptor at 1 uM
[5] = Inhibition of ATP-sensitive potassium channel at 1 uM
[6] = molecular target: Prostaglandin E2 receptor EP4 subtype (Homo sapiens) (UniProt P35408); assay: Inhibition of prostanoid EP4 receptor at 1 uM
[7] = Inhibition of rolipram binding site at 1 uM
[8] = molecular target: Sigma non-opioid intracellular receptor 1 (Homo sapiens) (UniProt Q99720); assay: Inhibition of sigma 1 receptor at 1 uM
[9] = molecular target: Sodium-dependent noradrenaline transporter (Homo sapiens) (UniProt P23975); assay: Inhibition of norepinephrine transporter at 1 uM
[10] = Inhibition of phorbol ester site of PKC at 1 uM
[11] = Inhibition of phencyclidine receptor at 1 uM
[12] = molecular target: T2, Glucocorticoid receptor (Homo sapiens, UniProt P04150); assay: Agonist activity at glucocorticoid receptor in human fibroblast assessed as inhibition of IL-1-beta-induced IL6 production treated 1 hr before IL1-beta challenge measured after 24 hrs by transrepression assay; type: functional
T2 sequence (P04150 whole entry): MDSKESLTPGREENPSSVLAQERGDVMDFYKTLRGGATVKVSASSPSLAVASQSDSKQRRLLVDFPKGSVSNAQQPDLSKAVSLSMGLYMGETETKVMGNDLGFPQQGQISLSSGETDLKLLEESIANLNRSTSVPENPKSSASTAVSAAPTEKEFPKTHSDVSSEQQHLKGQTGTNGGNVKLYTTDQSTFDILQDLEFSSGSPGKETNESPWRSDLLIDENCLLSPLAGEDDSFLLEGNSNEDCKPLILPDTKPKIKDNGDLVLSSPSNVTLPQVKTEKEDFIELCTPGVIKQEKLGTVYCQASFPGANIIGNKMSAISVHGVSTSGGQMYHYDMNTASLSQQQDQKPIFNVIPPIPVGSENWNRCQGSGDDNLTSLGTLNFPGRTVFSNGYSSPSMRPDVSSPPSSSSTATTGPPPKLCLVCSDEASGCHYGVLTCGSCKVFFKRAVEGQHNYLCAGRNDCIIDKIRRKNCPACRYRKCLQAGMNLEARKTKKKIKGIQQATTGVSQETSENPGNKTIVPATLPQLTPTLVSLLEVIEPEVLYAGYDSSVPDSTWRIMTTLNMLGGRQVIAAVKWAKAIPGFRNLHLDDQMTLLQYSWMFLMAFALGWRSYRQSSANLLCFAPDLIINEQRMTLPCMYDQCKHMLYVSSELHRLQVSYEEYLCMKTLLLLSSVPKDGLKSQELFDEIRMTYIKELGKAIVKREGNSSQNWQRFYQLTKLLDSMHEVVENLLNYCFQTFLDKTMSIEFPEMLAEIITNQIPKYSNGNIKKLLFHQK

[13] = Selectivity for human glucocorticoid receptor over ERalpha
[14] = Selectivity for human glucocorticoid receptor over ERbeta
[15] = Selectivity for human glucocorticoid receptor over progesterone receptor
[16] = molecular target: T3, Adenosine receptor A1 (Homo sapiens) (UniProt P30542); assay: Inhibition of adenosine A1 receptor at 1 uM
T3 sequence (whole entry): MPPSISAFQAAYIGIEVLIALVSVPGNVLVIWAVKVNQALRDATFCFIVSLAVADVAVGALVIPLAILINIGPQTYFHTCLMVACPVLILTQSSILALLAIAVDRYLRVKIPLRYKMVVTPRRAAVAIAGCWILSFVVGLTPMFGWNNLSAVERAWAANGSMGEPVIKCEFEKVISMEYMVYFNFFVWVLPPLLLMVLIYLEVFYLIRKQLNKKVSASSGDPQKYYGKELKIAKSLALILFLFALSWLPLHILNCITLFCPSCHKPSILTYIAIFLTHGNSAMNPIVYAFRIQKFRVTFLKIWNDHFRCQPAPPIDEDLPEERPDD

[17] = molecular target: Adenosine receptor A2a (Homo sapiens) (UniProt P29274); assay: Inhibition of adenosine A2A receptor at 1 uM
[18] = molecular target: T4, Alpha-1B adrenergic receptor (Homo sapiens) (UniProt P35368); assay: Inhibition of adrenergic Alpha-1B receptor at 1 uM
T4 sequence (whole entry): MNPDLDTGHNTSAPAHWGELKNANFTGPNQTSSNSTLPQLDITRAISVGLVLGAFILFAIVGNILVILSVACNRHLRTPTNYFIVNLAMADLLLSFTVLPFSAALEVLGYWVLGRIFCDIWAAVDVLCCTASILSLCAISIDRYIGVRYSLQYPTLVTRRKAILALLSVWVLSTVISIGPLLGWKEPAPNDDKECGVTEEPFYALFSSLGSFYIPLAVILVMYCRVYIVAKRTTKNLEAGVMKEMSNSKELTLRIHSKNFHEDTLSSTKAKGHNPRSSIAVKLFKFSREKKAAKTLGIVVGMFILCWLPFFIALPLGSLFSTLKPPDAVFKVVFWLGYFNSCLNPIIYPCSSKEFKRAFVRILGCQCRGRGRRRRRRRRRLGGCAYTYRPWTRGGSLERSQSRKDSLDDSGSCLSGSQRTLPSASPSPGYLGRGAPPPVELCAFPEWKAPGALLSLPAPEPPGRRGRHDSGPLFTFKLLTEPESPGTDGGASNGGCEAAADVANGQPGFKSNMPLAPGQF

[19] = molecular target: Beta-2 adrenergic receptor (Homo sapiens) (UniProt P07550); assay: Inhibition of adrenergic beta2 receptor at 1 uM
[20] = Inhibition of calcium channel L type dihydropyridine binding site at 1 uM
[21] = molecular target: D(1A) dopamine receptor (Homo sapiens) (UniProt P21728); assay: Inhibition of dopamine D1 receptor at 1 uM
Sequence of D(1A) dopamine receptor (Homo sapiens) (P21728 whole entry): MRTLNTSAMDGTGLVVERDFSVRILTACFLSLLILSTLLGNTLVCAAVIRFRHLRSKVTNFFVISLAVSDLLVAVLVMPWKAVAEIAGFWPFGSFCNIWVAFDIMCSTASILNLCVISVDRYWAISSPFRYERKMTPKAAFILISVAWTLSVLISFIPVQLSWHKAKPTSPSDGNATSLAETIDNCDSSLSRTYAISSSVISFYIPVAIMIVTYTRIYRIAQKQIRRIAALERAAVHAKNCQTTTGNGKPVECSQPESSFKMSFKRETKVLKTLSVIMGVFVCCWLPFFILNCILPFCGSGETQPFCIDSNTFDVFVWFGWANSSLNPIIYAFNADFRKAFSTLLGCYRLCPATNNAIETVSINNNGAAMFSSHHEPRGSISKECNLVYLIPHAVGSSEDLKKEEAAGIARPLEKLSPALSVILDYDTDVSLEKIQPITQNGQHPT

Sequence of Histamine H1 receptor (Homo sapiens) (P35367 whole entry): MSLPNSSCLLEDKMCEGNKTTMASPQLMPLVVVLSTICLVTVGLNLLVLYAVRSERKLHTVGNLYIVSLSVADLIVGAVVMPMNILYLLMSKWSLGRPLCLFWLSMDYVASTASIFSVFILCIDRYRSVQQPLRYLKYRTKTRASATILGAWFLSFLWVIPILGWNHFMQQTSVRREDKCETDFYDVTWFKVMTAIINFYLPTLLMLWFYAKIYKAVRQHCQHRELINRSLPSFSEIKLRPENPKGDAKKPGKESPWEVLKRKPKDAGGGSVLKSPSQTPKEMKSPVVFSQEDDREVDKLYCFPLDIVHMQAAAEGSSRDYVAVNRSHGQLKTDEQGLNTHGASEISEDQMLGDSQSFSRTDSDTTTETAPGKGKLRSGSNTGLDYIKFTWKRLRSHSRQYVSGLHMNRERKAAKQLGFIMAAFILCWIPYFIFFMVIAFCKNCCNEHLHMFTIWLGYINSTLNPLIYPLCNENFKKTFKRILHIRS
Sequence of Sodium-dependent noradrenaline transporter (Homo sapiens) (P23975 whole entry): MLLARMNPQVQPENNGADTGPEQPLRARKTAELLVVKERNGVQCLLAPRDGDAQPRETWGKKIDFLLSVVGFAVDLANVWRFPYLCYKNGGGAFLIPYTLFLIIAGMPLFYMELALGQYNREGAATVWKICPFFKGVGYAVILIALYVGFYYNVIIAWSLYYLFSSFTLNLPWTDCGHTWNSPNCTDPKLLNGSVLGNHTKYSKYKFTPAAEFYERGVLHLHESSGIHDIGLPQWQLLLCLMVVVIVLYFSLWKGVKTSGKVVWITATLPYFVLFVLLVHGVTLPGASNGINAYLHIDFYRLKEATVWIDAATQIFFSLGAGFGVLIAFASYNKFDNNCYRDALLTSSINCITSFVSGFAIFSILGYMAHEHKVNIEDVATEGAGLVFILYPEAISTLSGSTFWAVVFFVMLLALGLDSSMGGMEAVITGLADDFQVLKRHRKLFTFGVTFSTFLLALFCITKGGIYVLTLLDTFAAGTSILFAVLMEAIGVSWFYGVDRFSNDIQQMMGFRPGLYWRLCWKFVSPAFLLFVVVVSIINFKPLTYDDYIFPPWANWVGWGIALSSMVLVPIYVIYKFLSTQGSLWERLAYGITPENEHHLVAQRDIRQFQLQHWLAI
Sequence of Adenosine receptor A2a (Homo sapiens) (P29274 whole entry): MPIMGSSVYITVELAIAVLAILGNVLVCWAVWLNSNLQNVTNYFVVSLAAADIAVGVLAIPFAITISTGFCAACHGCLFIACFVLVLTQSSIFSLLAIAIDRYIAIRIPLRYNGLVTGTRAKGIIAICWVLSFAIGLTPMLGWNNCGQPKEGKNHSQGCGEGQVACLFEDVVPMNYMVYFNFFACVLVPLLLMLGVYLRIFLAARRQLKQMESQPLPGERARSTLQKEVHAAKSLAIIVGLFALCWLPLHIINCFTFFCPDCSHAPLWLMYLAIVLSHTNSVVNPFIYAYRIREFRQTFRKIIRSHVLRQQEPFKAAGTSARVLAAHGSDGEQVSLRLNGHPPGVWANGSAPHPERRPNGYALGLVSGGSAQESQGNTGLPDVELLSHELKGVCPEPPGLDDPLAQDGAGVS
Sequence of Sigma non-opioid intracellular receptor 1 (Homo sapiens) (Q99720 whole entry): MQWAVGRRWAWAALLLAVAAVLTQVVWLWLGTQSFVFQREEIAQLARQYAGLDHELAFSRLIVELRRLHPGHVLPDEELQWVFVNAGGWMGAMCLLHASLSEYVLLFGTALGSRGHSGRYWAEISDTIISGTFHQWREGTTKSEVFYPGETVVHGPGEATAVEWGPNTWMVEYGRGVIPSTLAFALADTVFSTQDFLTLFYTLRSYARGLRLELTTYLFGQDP
Sequence of Prostaglandin E2 receptor EP4 subtype (Homo sapiens) (P35408 whole entry): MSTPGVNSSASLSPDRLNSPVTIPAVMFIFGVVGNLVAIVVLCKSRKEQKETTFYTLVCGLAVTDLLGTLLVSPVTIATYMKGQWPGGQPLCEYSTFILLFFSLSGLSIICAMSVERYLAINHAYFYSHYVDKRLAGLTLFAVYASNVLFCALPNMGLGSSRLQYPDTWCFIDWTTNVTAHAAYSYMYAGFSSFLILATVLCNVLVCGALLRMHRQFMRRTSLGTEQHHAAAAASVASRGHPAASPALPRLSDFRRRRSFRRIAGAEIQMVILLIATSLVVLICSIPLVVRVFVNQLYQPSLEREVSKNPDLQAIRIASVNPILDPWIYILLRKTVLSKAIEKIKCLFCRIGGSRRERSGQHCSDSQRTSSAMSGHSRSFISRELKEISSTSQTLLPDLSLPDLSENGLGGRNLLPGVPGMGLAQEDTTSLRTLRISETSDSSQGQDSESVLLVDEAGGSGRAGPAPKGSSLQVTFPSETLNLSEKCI
Sequence of Beta-2 adrenergic receptor (Homo sapiens) (P07550 whole entry, looked up): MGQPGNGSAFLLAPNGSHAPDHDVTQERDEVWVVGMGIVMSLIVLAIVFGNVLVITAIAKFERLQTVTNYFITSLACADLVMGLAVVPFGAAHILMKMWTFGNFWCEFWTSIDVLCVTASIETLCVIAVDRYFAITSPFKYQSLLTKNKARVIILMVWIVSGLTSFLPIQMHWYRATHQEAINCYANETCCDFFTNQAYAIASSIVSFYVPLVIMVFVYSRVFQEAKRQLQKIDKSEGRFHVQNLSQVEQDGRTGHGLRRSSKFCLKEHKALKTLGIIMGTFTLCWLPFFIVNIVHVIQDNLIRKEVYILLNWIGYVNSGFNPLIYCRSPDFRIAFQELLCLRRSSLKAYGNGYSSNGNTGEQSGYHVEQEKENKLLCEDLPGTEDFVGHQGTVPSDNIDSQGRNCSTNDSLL
Sequence of Muscarinic acetylcholine receptor M3 (Homo sapiens) (P20309 whole entry, looked up): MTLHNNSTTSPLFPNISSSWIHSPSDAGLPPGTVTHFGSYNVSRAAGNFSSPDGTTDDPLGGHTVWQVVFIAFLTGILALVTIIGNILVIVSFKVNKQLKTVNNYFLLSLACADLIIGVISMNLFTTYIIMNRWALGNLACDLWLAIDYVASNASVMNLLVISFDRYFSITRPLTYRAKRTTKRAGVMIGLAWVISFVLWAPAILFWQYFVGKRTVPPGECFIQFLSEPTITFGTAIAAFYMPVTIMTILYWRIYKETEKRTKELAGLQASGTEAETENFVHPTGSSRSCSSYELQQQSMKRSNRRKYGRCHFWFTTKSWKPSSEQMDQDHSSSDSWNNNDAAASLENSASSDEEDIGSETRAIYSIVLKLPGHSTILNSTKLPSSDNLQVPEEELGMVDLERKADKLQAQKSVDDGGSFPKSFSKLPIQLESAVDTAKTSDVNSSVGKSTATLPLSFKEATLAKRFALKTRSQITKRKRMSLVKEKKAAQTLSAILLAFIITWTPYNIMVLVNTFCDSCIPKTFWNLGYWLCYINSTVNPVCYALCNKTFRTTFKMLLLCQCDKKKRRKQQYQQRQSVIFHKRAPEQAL

Row | Structure (SMILES) | inhibition [1] | inhibition [2] | inhibition [3] | inhibition [4] | inhibition [5] | inhibition [6] | inhibition [7] | inhibition [8] | inhibition [9] | inhibition [10] | inhibition [11] | EC50 [12] | Ratio [13] | Ratio [14] | Ratio [15] | inhibition [16] | inhibition [17] | inhibition [18] | inhibition [19] | inhibition [20] | also measured
1 | OC(c1ccnc(Cl)c1)(c1ccc2c(cnn2-c2ccc(F)cc2)c1)C(F)(F)F (single isomer, unassigned; (-)) | < 50% | < 50% | < 50% | < 50% | < 50% | < 50% | < 50% | < 50% | < 50% | < 50% | < 50% | 627 nM | > 1000 | > 1000 | > 1000 | < 50% | < 50% | < 50% | < 50% | < 50% | inhibition [21]: < 50%
2 | Cc1cc(C(O)(c2ccc3c(cnn3-c3ccc(F)cc3)c2)C(F)(F)F)ccc1F (single isomer, unassigned; (-)) | < 50% | < 50% | < 50% | < 50% | < 50% | < 50% | < 50% | < 50% | < 50% | < 50% | < 50% | 93 nM | > 1000 | > 1000 | > 1000 | < 50% | < 50% | < 50% | < 50% | < 50% | inhibition [21]: < 50%
